Source: US9260439B2, “Dihydropyrrolopyrimidine derivatives” (PFIZER INC., priority 2014, dated 2016)
Where a name gives a salt, the structure may show the parent alone.

Each compound was assayed against truncated PI3Kα (p110α/iSH2 p85α) (Homo sapiens (Human), UniProt P42336) (assay: PI3KA_Act fluorescence polarization kinase assay (Ki)). Conditions: 1 mM ATP.
Type: biochemical
Summary of the method: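 p110α/iSH2 p85α (0.5 nM) was reacted with 30 μM sonicated PIP2 in 50 mM HEPES pH 7.4, 150 mM NaCl, 5 mM MgCl2, 1 mM DTT and 0.05% CHAPS for 30 min at room temperature, then stopped with EDTA. PIP3 was detected by fluorescence polarization (GST-Grp1 PH domain/TAMRA-PIP3), and Ki came from a Morrison tight-binding fit.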

truncated PI3Kα (p110α/iSH2 p85α), sequence (P42336 whole entry, the tested form may be a part): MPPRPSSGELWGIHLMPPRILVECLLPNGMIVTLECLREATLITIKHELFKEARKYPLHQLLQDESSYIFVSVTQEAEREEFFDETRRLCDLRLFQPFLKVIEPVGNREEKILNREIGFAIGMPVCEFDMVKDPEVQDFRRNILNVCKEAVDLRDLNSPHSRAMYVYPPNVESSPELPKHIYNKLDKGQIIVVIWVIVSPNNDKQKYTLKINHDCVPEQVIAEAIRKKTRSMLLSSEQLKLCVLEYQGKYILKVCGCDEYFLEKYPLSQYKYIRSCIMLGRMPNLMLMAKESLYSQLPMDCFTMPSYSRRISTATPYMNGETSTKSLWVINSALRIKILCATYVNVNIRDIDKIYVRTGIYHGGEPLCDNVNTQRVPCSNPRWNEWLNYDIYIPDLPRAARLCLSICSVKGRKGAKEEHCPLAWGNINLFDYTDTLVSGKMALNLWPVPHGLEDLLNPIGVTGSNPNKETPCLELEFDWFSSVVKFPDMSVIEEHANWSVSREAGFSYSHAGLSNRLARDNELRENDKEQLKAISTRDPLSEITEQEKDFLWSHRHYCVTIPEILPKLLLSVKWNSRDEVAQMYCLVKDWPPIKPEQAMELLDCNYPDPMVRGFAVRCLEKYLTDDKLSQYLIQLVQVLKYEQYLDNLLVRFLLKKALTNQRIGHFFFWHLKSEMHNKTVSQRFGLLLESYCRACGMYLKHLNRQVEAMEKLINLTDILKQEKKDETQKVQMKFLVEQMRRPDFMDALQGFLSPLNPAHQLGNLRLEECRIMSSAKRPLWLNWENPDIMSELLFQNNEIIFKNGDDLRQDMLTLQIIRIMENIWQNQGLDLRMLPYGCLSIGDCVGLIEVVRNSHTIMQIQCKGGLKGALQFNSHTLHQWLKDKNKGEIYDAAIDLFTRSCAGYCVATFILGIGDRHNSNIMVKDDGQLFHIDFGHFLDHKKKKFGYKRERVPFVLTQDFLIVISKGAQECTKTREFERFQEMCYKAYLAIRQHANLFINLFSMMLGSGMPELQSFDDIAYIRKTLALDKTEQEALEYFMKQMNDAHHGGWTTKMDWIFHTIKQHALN

Row | Compound | PI3KA_Act Ki [nM] | Ki [nM]
1 | C[C@H]1COCCN1c1nc(-c2cnc(N)nc2)c2c(n1)N(C1(C)CNC1)CC2.Cl [Example 450, 5-{7-(3-methylazetidin-3-yl)-2-[(3S)-3-methylmorpholin-4-yl]-6,7-dihydro-5H-pyrrolo[2,3-d]pyrimidin-4-yl}pyrimidin-2-amine hydrochloride] | 0.167 | 
2 | C[C@@H]1COCCN1c1nc(-c2cnc(N)nc2)c2c(n1)N([C@H]1CCN(S(C)(=O)=O)C1)CC2 [Example 145] | 4.011 | 
3 | C[C@]1(N2CCc3c(-c4cnc(N)nc4)nc(N4CCOCC4)nc32)CCN(C(=O)C2(O)CCC2)C1 [Example 343, {(3S)-3-[4-(2-aminopyrimidin-5-yl)-2-(morpholin-4-yl)-5,6-dihydro-7H-pyrrolo[2,3-d]pyrimidin-7-yl]-3-methylpyrrolidin-1-yl}(1-hydroxycyclobutyl) methanone] | 0.089 | 
4 | CNC(=N)N1CC[C@](C)(N2CCc3c(-c4cnc(N)nc4)nc(N4CCOC[C@@H]4C)nc32)C1 [Example 504, (3S)-3-{4-(2-aminopyrimidin-5-yl)-2-[(3S)-3-methylmorpholin-4-yl]-5,6-dihydro-7H-pyrrolo[2,3-d]pyrimidin-7-yl}-N,3-dimethylpyrrolidine-1-carboximidamide] | 0.109 | 
5 | C[C@H]1COCCN1c1nc(-c2cnc(N)nc2)c2c(n1)N([C@H]1[C@@H]3CN[C@H]1C3)CC2 [Example 525, 5-{7-[(1S,4S,5S)-2-azabicyclo[2.1.1]hex-5-yl]-2-[(3S)-3-methylmorpholin-4-yl]-6,7-dihydro-5H-pyrrolo[2,3-d]pyrimidin-4-yl}pyrimidin-2-amine hydrochloride] |  | 4.5
6 | CN(CC(C)(C)N1CCc2c(-c3cnc(N)nc3)nc(N3CCOCC3)nc21)S(C)(=O)=O [Example 217] | 0.191 | 
7 | CC1(C(=O)N2CC(C)(N3CCc4c(-c5cnc(N)nc5)nc(N5CCOCC5)nc43)C2)CC1 [Example 246, {3-[4-(2-aminopyrimidin-5-yl)-2-(morpholin-4-yl)-5,6-dihydro-7H-pyrrolo[2,3-d]pyrimidin-7-yl]-3-methylazetidin-1-yl}(1-methylcyclopropyl) methanone] | 0.060 | 
8 | CNC(C)(C)C(=O)N1CC[C@](C)(N2CCc3c(-c4cnc(N)nc4)nc(N4CCOCC4)nc32)C1.Cl [Example 303, 1-{(3S)-3-[4-(2-aminopyrimidin-5-yl)-2-(morpholin-4-yl)-5,6-dihydro-7H-pyrrolo[2,3-d]pyrimidin-7-yl]-3-methylpyrrolidin-1-yl}-2-methyl-2-(methylamino) propan-1-one hydrochloride] | 0.025 | 
9 | CC[C@]1(N2CCc3c(-c4cnc(N)nc4)nc(N4CCOCC4)nc32)CCN(C(=O)C(C)(C)N)C1.Cl [Example 285, 2-amino-1-{(3S)-3-[4-(2-aminopyrimidin-5-yl)-2-(morpholin-4-yl)-5,6-dihydro-7H-pyrrolo[2,3-d]pyrimidin-7-yl]-3-ethylpyrrolidin-1-yl}-2-methylpropan-1-one hydrochloride] | 0.089 | 
10 | CNS(=O)(=O)NCCOC(=O)N1CC(N2CCc3c(-c4cnc(N)nc4)nc(N4CCOCC4)nc32)C1 [Example 148] | 0.094 | 
11 | Nc1ncc(-c2nc(N3CCOCC3)nc3c2CCN3C2CN(S(=O)(=O)CC3CC3)C2)cn1 [Example 169] | 0.129 | 
12 | C[C@]1(N2CCc3c(-c4cnc(N)nc4)nc(N4CCOCC4)nc32)CCN(C(=O)[C@](C)(N)C(F)(F)F)C1.Cl [Example 312, (2S)-2-amino-1-{(3S)-3-[4-(2-aminopyrimidin-5-yl)-2-(morpholin-4-yl)-5,6-dihydro-7H-pyrrolo[2,3-d]pyrimidin-7-yl]-3-methylpyrrolidin-1-yl}-3,3,3-trifluoro-2-methylpropan-1-one hydrochloride] | 0.037 | 
13 | COCC(=O)N1CC[C@@](C)(N2CCc3c(-c4cnc(N)nc4)nc(N4CCOCC4)nc32)C1 [Example 280, 1-{(3R)-3-[4-(2-aminopyrimidin-5-yl)-2-(morpholin-4-yl)-5,6-dihydro-7H-pyrrolo[2,3-d]pyrimidin-7-yl]-3-methylpyrrolidin-1-yl}-2-methoxyethanone] | 0.154 | 
14 | C[C@]1(N2CCc3c(-c4cnc(N)nc4)nc(N4CCOCC4)nc32)CCN(C(=O)[C@H]2C[C@@H]2F)C1 [Example 332, {(3S)-3-[4-(2-aminopyrimidin-5-yl)-2-(morpholin-4-yl)-5,6-dihydro-7H-pyrrolo[2,3-d]pyrimidin-7-yl]-3-methylpyrrolidin-1-yl}[(1R,2S)-2-fluorocyclopropyl] methanone] | <0.018 | 
15 | COC(=O)N1CC(C)(N2CCc3c(-c4cnc(N)nc4)nc(N4CCOC[C@@H]4C)nc32)C1 [Example 460, methyl 3-{4-(2-aminopyrimidin-5-yl)-2-[(3S)-3-methylmorpholin-4-yl]-5,6-dihydro-7H-pyrrolo[2,3-d]pyrimidin-7-yl}-3-methylazetidine-1-carboxylate] | 0.047 | 
16 | C[C@]1(N2CCc3c(-c4cnc(N)nc4)nc(N4CCOCC4)nc32)CCN(C(=O)c2ncc[nH]2)C1 [Example 388, {(3S)-3-[4-(2-aminopyrimidin-5-yl)-2-(morpholin-4-yl)-5,6-dihydro-7H-pyrrolo[2,3-d]pyrimidin-7-yl]-3-methylpyrrolidin-1-yl}(1H-imidazol-2-yl)methanone] | <0.018 | 
17 | CNS(=O)(=O)N1CCC(C)(N2CCc3c(-c4cnc(N)nc4)nc(N4CCOCC4)nc32)C1 (racemic) [Example 162] | <0.018 | 
18 | CNC(=N)N1CC[C@](C)(N2CCc3c(-c4cnc(N)nc4)nc(N4CCOCC4)nc32)C1 [Example 392, (3S)-3-[4-(2-aminopyrimidin-5-yl)-2-(morpholin-4-yl)-5,6-dihydro-7H-pyrrolo[2,3-d]pyrimidin-7-yl]-N,3-dimethylpyrrolidine-1-carboximidamide] | 0.101 | 
19 | CCNC(=O)N1CC[C@](C)(N2CCc3c(-c4cnc(N)nc4)nc(N4CCOCC4)nc32)C1 [Example 507, (3S)-3-[4-(2-aminopyrimidin-5-yl)-2-(morpholin-4-yl)-5,6-dihydro-7H-pyrrolo[2,3-d]pyrimidin-7-yl]-N-ethyl-3-methylpyrrolidine-1-carboxamide] |  | 0.082
20 | C[C@H]1COCCN1c1nc(-c2cnc(N)nc2)c2c(n1)N([C@@]1(C)CCN(C(=O)C(F)(F)CN)C1)CC2.Cl [Example 489, 3-amino-1-[(3S)-3-{4-(2-aminopyrimidin-5-yl)-2-[(3S)-3-methylmorpholin-4-yl]-5,6-dihydro-7H-pyrrolo[2,3-d]pyrimidin-7-yl}-3-methylpyrrolidin-1-yl]-2,2-difluoropropan-1-one hydrochloride] | <0.018 | 
21 | CC(C)(N)C(=O)N1CC[C@](C)(N2CCc3c(-c4cnc(N)nc4)nc(N4CCOCC4)nc32)C1 [Example 4, 2-amino-1-{(3S)-3-[4-(2-aminopyrimidin-5-yl)-2-(morpholin-4-yl)-5,6-dihydro-7H-pyrrolo[2,3-d]pyrimidin-7-yl]-3-methylpyrrolidin-1-yl}-2-methylpropan-1-one] | 0.023 | 
22 | C[C@]1(N2CCc3c(-c4cnc(N)nc4)nc(N4CCOCC4)nc32)CCN(C(=O)CC2CC2)C1 [Example 323, 1-{(3S)-3-[4-(2-aminopyrimidin-5-yl)-2-(morpholin-4-yl)-5,6-dihydro-7H-pyrrolo[2,3-d]pyrimidin-7-yl]-3-methylpyrrolidin-1-yl}-2-cyclopropylethanone] | <0.018 | 
23 | COCCS(=O)(=O)N1CC(N2CCc3c(-c4cnc(N)nc4)nc(N4CCOCC4)nc32)C1 [Example 170] | 0.124 | 
24 | Nc1ncc(-c2nc(N3CCOCC3)nc3c2CCN3C23CC(C2)C3)cn1 [Example 158] | 0.200 | 
25 | COC1CN(C(=O)N2CC[C@](C)(N3CCc4c(-c5cnc(N)nc5)nc(N5CCOCC5)nc43)C2)C1 [Example 367, {(3S)-3-[4-(2-aminopyrimidin-5-yl)-2-(morpholin-4-yl)-5,6-dihydro-7H-pyrrolo[2,3-d]pyrimidin-7-yl]-3-methylpyrrolidin-1-yl}(3-methoxyazetidin-1-yl)methanone] | <0.018 | 
26 | C[C@]1(N2CCc3c(-c4cnc(N)nc4)nc(N4CCOCC4)nc32)CCN(C(=O)[C@@H](N)C2CC2)C1.Cl [Example 296, (2S)-2-amino-1-{(3S)-3-[4-(2-aminopyrimidin-5-yl)-2-(morpholin-4-yl)-5,6-dihydro-7H-pyrrolo[2,3-d]pyrimidin-7-yl]-3-methylpyrrolidin-1-yl}-2-cyclopropylethanone hydrochloride] | <0.018 | 
27 | C[C@H]1COCCN1c1nc(-c2cnc(N)nc2)c2c(n1)N([C@@]1(C)CCN(C(=O)[C@@](C)(N)CO)C1)CC2.Cl [Example 486, (2S)-2-amino-1-[(3S)-3-{4-(2-aminopyrimidin-5-yl)-2-[(3S)-3-methylmorpholin-4-yl]-5,6-dihydro-7H-pyrrolo[2,3-d]pyrimidin-7-yl}-3-methylpyrrolidin-1-yl]-3-hydroxy-2-methylpropan-1-one hydrochloride] | <0.018 | 
28 | CC(C(N)=O)C(=O)N1CC[C@](C)(N2CCc3c(-c4cnc(N)nc4)nc(N4CCOCC4)nc32)C1 (stereo partly drawn) [Example 315, 3-{(3S)-3-[4-(2-aminopyrimidin-5-yl)-2-(morpholin-4-yl)-5,6-dihydro-7H-pyrrolo[2,3-d]pyrimidin-7-yl]-3-methylpyrrolidin-1-yl}-2-methyl-3-oxopropanamide] | <0.018 | 
29 | C[C@]1(N2CCc3c(-c4cnc(N)nc4)nc(N4CCOCC4)nc32)CCN(C(=O)[C@H](N)C(F)(F)F)C1.Cl [Example 314, (2S)-2-amino-1-{(3S)-3-[4-(2-aminopyrimidin-5-yl)-2-(morpholin-4-yl)-5,6-dihydro-7H-pyrrolo[2,3-d]pyrimidin-7-yl]-3-methylpyrrolidin-1-yl}-3,3,3-trifluoropropan-1-one hydrochloride] | <0.018 | 
30 | CCS(=O)(=O)N1CC(C)(N2CCc3c(-c4cnc(N)nc4)nc(N4CCOC[C@@H]4C)nc32)C1 [Example 203] | 0.032 | 
